Where “and” joins values, the source holds several entries; their conditions need not be identical. Equal entries are not always repeated. Blank lines part the entries; values can stand above or below the compound they belong to. Calls of active or inactive are those of the source.
Key:
[1] = target: T1, CAAX prenyl protease 2 (Saccharomyces cerevisiae S288c, UniProt Q03530); type: biochemical
T1 sequence (Q03530 whole entry): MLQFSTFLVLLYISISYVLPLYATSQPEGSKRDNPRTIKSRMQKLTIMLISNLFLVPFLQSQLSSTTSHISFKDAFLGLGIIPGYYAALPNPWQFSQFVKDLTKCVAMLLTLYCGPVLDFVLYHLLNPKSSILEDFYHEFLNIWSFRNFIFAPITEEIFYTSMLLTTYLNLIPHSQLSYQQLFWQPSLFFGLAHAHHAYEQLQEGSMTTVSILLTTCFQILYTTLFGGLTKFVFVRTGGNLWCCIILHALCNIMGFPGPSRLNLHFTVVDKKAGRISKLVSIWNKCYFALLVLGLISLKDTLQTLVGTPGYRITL

[2] = target: T1, CAAX prenyl protease 2; assay: inhibition of Rce1p peptide cleavage – biochemical, plate reader, dry powder retest, dose response (AID 588851)
[3] = potency of ADAM10 substrate cleavage blockers – biochemical, QFRET, dose response (AID 743254);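 further: ADAM10 enzyme with the DM2 quenched FRET peptide as substrate; EDANS fluorescence gain as the protease cuts the substrate; inhibitor potency against ADAM10 proteolytic activity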
[4] = target: Disintegrin and metalloproteinase domain-containing protein 17 (Homo sapiens, UniProt P78536); assay: inhibition of ADAM17 substrate cleavage – biochemical, quenched FRET substrate, counter-screen for ADAM10 exosite inhibitor project, dose response (AID 743253)
[5] = tested on: INS1; assay: beta-cell survival under cytokine stress – INS-1E, ATP luminescence, dry powder, dose response (AID 488844); type: functional, cell-based; conditions: Rattus norvegicus
[6] = tested on: INS1; assay: suppression of cytokine-induced beta-cell apoptosis – INS-1E, caspase luminescence, dry powder, beta-cell apoptosis inhibitor project, dose response (AID 488848); type: functional, cell-based; conditions: Rattus norvegicus
[7] = suppression of NO production in INS-1E cells – cell-based, Griess absorbance, dry powder, set 3, dose response (AID 488870); type: functional; conditions: Rattus norvegicus
[8] = tested on: INS1; assay: suppression of NO production in INS-1E cells – cell-based, Griess absorbance, dry powder, dose response (AID 488866); type: functional; conditions: Rattus norvegicus
[9] = tested on: INS1; assay: suppression of NO production in INS-1E cells – cell-based, Griess absorbance, dry powder, set 2, dose response (AID 488868); type: functional; conditions: Rattus norvegicus
[10] = tested on: INS1; assay: INS-1E mitochondrial potential rescue under cytokines – cell-based, JC-1 fluorescence ratio, dry powder, dose response (AID 488931); type: functional; conditions: Rattus norvegicus
[11] = Luminescence-based dose response cell-based high throughput screening assay for cytotoxic compounds using the IEC-6 intestinal epithelial cell line. [Related pubchem assays: 1858 (Summary AID.), 1825 (Counterscreen.), 1907 (Confirmation screen.)]; type: functional
[12] = target: T2, Exodeoxyribonuclease V (Escherichia coli (strain K12), UniProt P04993+P07648+P08394); assay: RecBCD inhibition via phage-restricted bacterial growth – absorbance, V66 E. coli, mutant T4 phage, counter-screen for AddAB inhibitor project, dose response (AID 492957); type: functional, cell-based, Escherichia coli str. K-12 substr. MG1655
T2 sequence (P04993 whole entry): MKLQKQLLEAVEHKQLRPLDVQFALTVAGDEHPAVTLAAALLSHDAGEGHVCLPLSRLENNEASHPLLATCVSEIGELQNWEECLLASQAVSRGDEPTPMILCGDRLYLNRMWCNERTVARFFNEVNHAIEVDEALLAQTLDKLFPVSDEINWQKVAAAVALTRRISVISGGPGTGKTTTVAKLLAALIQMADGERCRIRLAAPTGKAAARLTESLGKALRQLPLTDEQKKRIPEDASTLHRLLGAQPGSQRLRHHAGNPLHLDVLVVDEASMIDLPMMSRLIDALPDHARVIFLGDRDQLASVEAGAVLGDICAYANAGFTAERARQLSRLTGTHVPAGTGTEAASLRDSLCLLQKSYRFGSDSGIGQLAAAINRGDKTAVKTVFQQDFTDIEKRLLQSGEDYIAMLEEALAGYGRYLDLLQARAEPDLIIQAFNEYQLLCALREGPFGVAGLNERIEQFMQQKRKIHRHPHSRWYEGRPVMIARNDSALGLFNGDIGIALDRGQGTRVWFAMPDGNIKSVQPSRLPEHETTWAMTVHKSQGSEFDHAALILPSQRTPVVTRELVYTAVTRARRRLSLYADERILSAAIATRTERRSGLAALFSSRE
T2 sequence (P07648 whole entry): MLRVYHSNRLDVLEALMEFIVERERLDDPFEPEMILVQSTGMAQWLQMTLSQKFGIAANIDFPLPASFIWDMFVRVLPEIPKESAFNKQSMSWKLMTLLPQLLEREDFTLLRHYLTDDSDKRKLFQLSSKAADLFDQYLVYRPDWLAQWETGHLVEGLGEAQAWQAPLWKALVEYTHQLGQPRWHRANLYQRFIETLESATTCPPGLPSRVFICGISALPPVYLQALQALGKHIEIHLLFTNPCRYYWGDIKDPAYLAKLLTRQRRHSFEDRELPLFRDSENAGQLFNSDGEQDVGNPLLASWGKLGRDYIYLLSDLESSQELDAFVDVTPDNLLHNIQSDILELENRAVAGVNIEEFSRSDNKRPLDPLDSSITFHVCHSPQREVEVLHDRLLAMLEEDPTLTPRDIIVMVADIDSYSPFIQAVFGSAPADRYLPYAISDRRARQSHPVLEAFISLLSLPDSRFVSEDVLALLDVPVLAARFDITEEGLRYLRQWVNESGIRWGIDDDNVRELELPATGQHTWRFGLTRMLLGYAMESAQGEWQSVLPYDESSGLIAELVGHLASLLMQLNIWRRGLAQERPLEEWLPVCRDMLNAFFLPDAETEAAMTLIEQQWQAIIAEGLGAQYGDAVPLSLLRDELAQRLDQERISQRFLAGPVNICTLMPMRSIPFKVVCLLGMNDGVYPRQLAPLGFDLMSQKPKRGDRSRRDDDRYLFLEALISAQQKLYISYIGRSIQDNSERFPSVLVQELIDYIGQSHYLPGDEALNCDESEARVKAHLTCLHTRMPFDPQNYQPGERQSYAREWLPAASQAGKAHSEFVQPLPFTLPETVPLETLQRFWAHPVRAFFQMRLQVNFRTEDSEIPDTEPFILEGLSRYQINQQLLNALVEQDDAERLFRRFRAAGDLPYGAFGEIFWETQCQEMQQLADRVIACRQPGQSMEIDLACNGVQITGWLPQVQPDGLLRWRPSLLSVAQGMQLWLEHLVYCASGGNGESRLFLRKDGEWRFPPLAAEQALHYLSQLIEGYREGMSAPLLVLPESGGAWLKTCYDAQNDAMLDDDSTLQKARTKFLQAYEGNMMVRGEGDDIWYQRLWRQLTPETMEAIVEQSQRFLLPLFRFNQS
T2 sequence (P08394 whole entry): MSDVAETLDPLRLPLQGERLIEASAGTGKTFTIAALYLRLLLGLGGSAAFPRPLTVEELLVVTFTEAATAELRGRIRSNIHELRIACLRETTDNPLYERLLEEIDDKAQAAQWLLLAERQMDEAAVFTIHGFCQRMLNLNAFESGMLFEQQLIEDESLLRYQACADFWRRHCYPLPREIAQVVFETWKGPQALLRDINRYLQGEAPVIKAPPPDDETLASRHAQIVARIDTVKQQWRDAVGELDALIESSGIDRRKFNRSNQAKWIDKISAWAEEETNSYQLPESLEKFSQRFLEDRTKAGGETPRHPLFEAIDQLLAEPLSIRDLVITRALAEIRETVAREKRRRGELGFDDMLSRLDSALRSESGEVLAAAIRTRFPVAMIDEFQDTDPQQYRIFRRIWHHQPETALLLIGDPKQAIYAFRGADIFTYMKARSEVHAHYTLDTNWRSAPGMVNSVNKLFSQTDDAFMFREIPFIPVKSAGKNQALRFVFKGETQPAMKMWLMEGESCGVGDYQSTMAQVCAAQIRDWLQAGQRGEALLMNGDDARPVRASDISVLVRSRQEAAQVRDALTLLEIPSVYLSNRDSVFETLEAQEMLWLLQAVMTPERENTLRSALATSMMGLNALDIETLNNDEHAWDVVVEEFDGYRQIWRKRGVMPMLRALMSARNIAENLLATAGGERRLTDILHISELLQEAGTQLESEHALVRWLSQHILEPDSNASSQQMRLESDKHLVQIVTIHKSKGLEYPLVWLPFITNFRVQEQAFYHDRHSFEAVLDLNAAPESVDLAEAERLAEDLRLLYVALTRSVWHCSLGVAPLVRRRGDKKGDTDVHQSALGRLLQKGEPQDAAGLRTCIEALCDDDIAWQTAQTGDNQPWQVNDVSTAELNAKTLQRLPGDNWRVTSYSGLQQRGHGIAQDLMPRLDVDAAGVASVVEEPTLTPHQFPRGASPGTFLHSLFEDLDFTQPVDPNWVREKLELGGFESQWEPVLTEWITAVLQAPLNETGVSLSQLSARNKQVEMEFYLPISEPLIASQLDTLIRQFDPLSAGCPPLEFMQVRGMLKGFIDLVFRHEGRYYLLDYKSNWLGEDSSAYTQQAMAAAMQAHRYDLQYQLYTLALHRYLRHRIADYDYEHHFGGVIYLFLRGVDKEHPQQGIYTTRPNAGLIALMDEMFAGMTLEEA

[13] = Luminescence Cell-Based Dose Retest to Confirm Inhibitors of Cancer Stem Cells. [Related pubchem assays (depositor defined):AID2717, AID2721]; type: functional; conditions: Homo sapiens
[14] = HEK-293T cell viability reduction – luminescence, B-cell screen hits, cytotoxicity control for BCR NF-kB inhibitor project, dose response (AID 489021); type: functional, cell-based;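 further: HEK-293T cells carrying an NF-kB luciferase reporter; cells exposed to compound for about 14 hours before viability readout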
[15] = tested on: HEK293; assay: EBV LMP1 TES2 canonical NF-kB signalling blockers – cell-based, HEK293, luciferase, cherry-pick, dose response (AID 588343); type: functional; conditions: Homo sapiens
[16] = target: Latent membrane protein 1 (Human herpesvirus 4 (strain B95-8), UniProt P03230); assay: LMP1 TES1 pathway selectivity over dsRED control – imaging, HEK293T, dual-color eGFP/dsRED, cherry-picks, selectivity assay for LMP1 NF-kB inhibitor project, dose response (AID 588398); type: functional, cell-based
[17] = CellTiter-Glo luminescence survival assay, SW480 colon tumor line, concentration-response curve, half-maximal inhibitory concentration (AID 1117338); type: functional
[18] = SNU-C1 cell viability reduction, dose response, CellTiter-Glo luminescence (AID 1117323); type: functional, cell-based
[19] = cytotoxicity toward Colo320 cells – cell-based, CellTiter-Glo luminescence, IC50, dose response (AID 1117334); type: functional; conditions: COLO 320
[20] = cytotoxicity toward HT-29 cells – cell-based, CellTiter-Glo luminescence, IC50, dose response (AID 1117330); type: functional
[21] = Reduced DLD-1 viability, concentration-response, CellTiter-Glo luminescence (AID 1117352); type: functional

Latent membrane protein 1, sequence (P03230 whole entry): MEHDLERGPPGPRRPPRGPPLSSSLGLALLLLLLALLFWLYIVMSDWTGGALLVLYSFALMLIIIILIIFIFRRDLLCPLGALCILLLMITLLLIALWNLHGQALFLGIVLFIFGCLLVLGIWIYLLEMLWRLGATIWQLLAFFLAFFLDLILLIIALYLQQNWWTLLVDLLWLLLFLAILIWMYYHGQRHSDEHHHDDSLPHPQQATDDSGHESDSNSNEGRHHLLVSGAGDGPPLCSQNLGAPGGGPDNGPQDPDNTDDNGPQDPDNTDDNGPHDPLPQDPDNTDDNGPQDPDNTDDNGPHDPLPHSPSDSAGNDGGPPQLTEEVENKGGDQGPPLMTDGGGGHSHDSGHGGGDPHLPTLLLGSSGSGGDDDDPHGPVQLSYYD
Disintegrin and metalloproteinase domain-containing protein 17, sequence (P78536 whole entry, the tested form may be a part): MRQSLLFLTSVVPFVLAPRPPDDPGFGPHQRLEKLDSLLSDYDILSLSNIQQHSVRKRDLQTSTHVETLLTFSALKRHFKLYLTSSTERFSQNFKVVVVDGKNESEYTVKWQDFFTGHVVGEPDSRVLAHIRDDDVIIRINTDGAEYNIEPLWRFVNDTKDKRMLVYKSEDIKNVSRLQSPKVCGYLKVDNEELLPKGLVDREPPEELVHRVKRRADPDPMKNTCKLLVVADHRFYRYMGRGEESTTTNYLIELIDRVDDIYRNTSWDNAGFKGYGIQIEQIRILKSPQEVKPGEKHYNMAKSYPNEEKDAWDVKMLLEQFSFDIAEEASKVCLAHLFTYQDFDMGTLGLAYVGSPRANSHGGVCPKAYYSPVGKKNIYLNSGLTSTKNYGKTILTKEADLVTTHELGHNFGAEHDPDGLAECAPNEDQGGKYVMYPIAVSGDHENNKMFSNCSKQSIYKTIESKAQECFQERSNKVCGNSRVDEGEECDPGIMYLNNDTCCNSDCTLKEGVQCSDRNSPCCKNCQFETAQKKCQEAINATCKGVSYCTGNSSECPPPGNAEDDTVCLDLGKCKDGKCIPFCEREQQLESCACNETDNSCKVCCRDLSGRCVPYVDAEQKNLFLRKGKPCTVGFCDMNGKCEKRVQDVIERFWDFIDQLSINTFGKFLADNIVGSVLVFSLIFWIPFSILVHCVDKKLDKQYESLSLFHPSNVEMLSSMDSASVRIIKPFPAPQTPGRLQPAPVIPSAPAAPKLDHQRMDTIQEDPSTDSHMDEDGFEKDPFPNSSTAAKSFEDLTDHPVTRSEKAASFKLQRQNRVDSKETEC

AC50 [1]: 0.117 µM (active) | AC50 [2]: 3.25 µM (active) | IC50 [3]: > 69.5 µM (inactive) | IC50 [4]: > 69.5 µM (inactive)
Compound: CC(C)c1c(C(=O)N/N=C/c2cccc3ccccc23)nnn1-c1nonc1N

Compound: COc1ccc(S(=O)(=O)N(C)C[C@@H]2Oc3c(NC(=O)Nc4cccc5ccccc45)cccc3C(=O)N([C@@H](C)CO)C[C@H]2C)cc1C
AC50 [5]: 0.436 µM (active) | AC50 [6]: 0.414 µM (active) | AC50 [7]: 34.5 µM (active) | AC50 [8]: 45.2 µM (active) | AC50 [9]: 25.1 µM (active) | AC50 [10]: 4.91 µM (active)

Compound: O=c1[nH]c(=O)n([C@H]2C[C@H](O)[C@@H](CO)O2)cc1C(F)(F)F [TRIFLURIDINE]
IC50 [11]: 1.75 µM (active) | IC50 [12]: > 118 µM (inactive) and > 119 µM (inactive) | AC50 [13]: 1.66 µM (active) | IC50 [14]: > 80 µM (inactive) | AC50 [15]: 3.28 µM (active) | AC50 [16]: 1.13 µM (active) | IC50 [17]: > 20 µM (inactive) | IC50 [18]: > 20 µM (inactive) | IC50 [19]: > 20 µM (inactive) | IC50 [20]: > 20 µM (inactive) | IC50 [21]: > 20 µM (inactive)

Reference: ChEMBL document CHEMBL1201862, “PubChem BioAssay data set” (2004)
